Measured values reported in US20190262453A1, “DESIGN AND COMPOSITION OF CELL-STABILIZED PHARMACEUTICAL FORMULATIONS” (THE REGENTS OF THE UNIVERSITY OF MICHIGAN, priority 2016, published 2019).
Where two headings read alike, the source gives them in different places.

Tests used:
RAW264.7 cells [1] = test: Cell viability (XTT assay); assay type: cell-based
Method: Cell Viability. Viability of RAW264.7 cells were performed using Cell Proliferation Kit II (XTT) (Roche Applied Science, Mannheim, Germany, Cat. No. 11465015001) using the manufacturer's instructions. […] Post 24 hours exposure to CFZ, the cells were incubated with the yellow XTT solution (final concentration 0.3 mg/ml) for 4 h. […] An increase in number of living cells directly correlates to the amount of orange formazan formed, as monitored by the solution absorbance at 500 nm (Abs500). The following formula was used to determine viability of drug and inhibitor treated cells using untreated cells (blank) as a control—Cell Viability=(Abs500, treated—Abs700,treated)/(Abs500, blank—Abs700,blank).

[2] = Mouse body weight and temperature during macrophage depletion and CFZ feeding; assay type: in vivo; conditions: mice, final measurement; four weeks diet, two weeks liposomes
Method: Mice (4 week old, male C57B16) were purchased from the Jackson Laboratory (Bar Harbor, Me.) and acclimatized for 1 week in a specific-pathogen-free animal facility. Clofazimine (CFZ) (C8895; Sigma, St. Louis, Mo.) was dissolved in sesame oil (Shirakiku, Japan) to achieve a concentration of 3 mg/ml, which was mixed with Powdered Lab Diet 5001 (PMI International, Inc., St. Louis, Mo.) to produce a 0.03% drug to powdered feed mix, and orally administered ad libitum for 4 weeks. A corresponding amount of sesame oil was mixed with chow for vehicle treatment (control). Mice were euthanized via carbon dioxide asphyxiation and exsanguination. Animal care was provided by the University of Michigan's Unit for Laboratory Animal Medicine (ULAM).
In order to deplete tissue macrophages, mice were treated with liposomes containing either 7 mg/mL clodronate or phosphate-buffered saline (PBS) (FormuMax Scientific Inc., Sunnyvale, Calif.) for up to six weeks. Liposomes were injected IP to eliminate macrophages of the liver, spleen, and peritoneal cavity. Mice were initially treated with 200 μL of liposomes, followed by 100 μL injections twice per week to ensure continual depletion of macrophages. […]
During the course of the experiment, the body weight and temperature of the mice were measured daily to track the impact of the loss of drug-sequestering cells on the general health of the mouse. […]

RAW264.7 cells [3] = test system: RAW264.7 cells
Method: Drug Uptake. Measurement of CFZ uptake in RAW264.7 cells was performed using a modified absorbance spectroscopy method using 9 M H2SO4 (pH<<0.1) to digest the entire cell population and extract CFZ from the cells. Cells at a very high seeding density of 50,000 cells/well, grown in a 96 well tissue culture plate in 280 μl/well of DMEM +10% FBS +1% P/S (growth media), were pre-incubated with varying concentrations of BafA1 (0-4 nM) and NPPB (0-200 μM) for 4 hours before adding CFZ dissolved in DMSO such that final concentrations of CFZ were in the range of 0-8 μM. Post 4 and 24 hours exposure to CFZ, growth media was aspirated out and the cells were washed with PBS twice before adding 100 μl/well of 9 M H2SO4 and incubated at room temperature for 30 minutes before spectrophotometric quantification using a Synergy 2 plate reader (BioTek, Winooski, Vt.) at 540 nm (Abs540) and 750 nm (Abs750) (for background). Standards were prepared on the same plate by adding 100 μl/well pre-determined standards of CFZ. Total uptake was reported as total picomoles of intracellular drug as measured and calculated using the standard curve.
Cell Viability Measurement: Comparing Wet Lab Experimental Study with Simulation Study. In order to compare wet lab experimental cell viability determination with that of model simulation, the rate at which drug accumulation occurred in the experimental study was calculated. […] Then, cell viability was calculated using the following equation: […]
In vitro analysis (CFZ accumulation). […] Furthermore, the following comparisons are reported as a percentage (%) of CFZ accumulation measured in uninhibited cells under the various tested CFZ concentrations and 8 μM CFZ concentration, in the wet lab experimental and simulation studies, respectively.

[4] = Biochemical analysis of CFZ in tissues; assay type: in vivo; conditions: clodronate-treated mice versus PBS
Method: Mice were fed CFZ or a control diet continuously for a four week period. Following two weeks of feeding, liposome treatment began for two weeks. After completing four weeks of feeding and two weeks of liposome treatment, the mice were sacrificed and tissues were collected.
The concentration of CFZ in organs was determined spectrophotometrically. After four weeks of CFZ- or vehicle-diet treatment, mice were euthanized via CO2 asphyxiation, and blood and organs were collected. Tissue (20-30 mg) was homogenized in 500 μL of RIPA buffer, and 350 μL of homogenate was removed drug was extracted with three passes of 1 mL of xylenes. The drug was then extracted from the xylene with three 1 mL passes of 9M sulfuric acid. The concentration of CFZ present in the tissue was then determined using a plate reader at wavelength 450 nm.

SMILES: CC(C)N=c1cc2n(-c3ccc(Cl)cc3)c3ccccc3nc-2cc1Nc1ccc(Cl)cc1 [CFZ, 3-(p-chloroanilino)-10-(p-chlorophenyl)-2, 10-dihydro-2-isopropyliminophenazine]
- cell viability (RAW264.7 cells [1]; BafA1=4 nM and CFZ=10 μM, n=6): 76±13%
- cell viability (RAW264.7 cells [1]; BafA1=6 nM, all concentrations of CFZ): 48-85%
- cell viability (RAW264.7 cells [1]; BafA1=8 nM, all concentrations of CFZ): 33-77%
- cell viability (RAW264.7 cells [1]; exposed to NPPB (all tested concentrations) prior to varying concentrations of CFZ): > 92%
- effect on cell viability (RAW264.7 cells [1]; incubation of the substance alone, RAW264.7, XTT): no significant effect
- cell viability (RAW264.7 cells [1]; up to 4 nM BafA1 prior to up to 8 μM CFZ): > 91%
- Average Body Temperature (n = 3-4) [2]: 34.3 ± 0.3 °C
- Average Body Weight (n = 3-4) [2]: 25.7 ± 0.8 g
- CFZ accumulation relative to uninhibited cells (RAW264.7 cells [3]; 2 nM BafA1, initial CFZ=4 μM, 4 hours): 80±13%
- CFZ accumulation relative to uninhibited cells (RAW264.7 cells [3]; 2 nM BafA1, initial CFZ=4 μM, 24 hours): 67±12%
- CFZ accumulation relative to uninhibited cells (RAW264.7 cells [3]; 2 nM BafA1, initial CFZ=6 μM, 4 hours): 75±11%
- CFZ accumulation relative to uninhibited cells (RAW264.7 cells [3]; 2 nM BafA1, initial CFZ=6 μM, 24 hours): 71±19%
- CFZ accumulation relative to uninhibited cells (RAW264.7 cells [3]; 2 nM BafA1, initial CFZ=8 μM, 4 hours): 63±9%
- CFZ accumulation relative to uninhibited cells (RAW264.7 cells [3]; 2 nM BafA1, initial CFZ=8 μM, 24 hours): 67±12%
- CFZ accumulation relative to uninhibited cells (RAW264.7 cells [3]; BafA1=4 nM, initial CFZ=4 μM, 4 hours): 29±4%
- CFZ accumulation relative to uninhibited cells (RAW264.7 cells [3]; BafA1=4 nM, initial CFZ=4 μM, 24 hours): 42±6%
- CFZ accumulation relative to uninhibited cells (RAW264.7 cells [3]; BafA1=4 nM, initial CFZ=6 μM, 4 hours): 47±9%
- CFZ accumulation relative to uninhibited cells (RAW264.7 cells [3]; BafA1=4 nM, initial CFZ=6 μM, 24 hours): 38±9%
- CFZ accumulation relative to uninhibited cells (RAW264.7 cells [3]; BafA1=4 nM, initial CFZ=8 μM, 4 hours): 43±8%
- CFZ accumulation relative to uninhibited cells (RAW264.7 cells [3]; BafA1=4 nM, initial CFZ=8 μM, 24 hours): 26±4%
- CFZ accumulation relative to uninhibited cells (RAW264.7 cells [3]; NPPB=50 μM, CFZ=4 μM, 24 hours): 73±10%
- CFZ accumulation relative to uninhibited cells (RAW264.7 cells [3]; NPPB=50 μM, CFZ=6 μM, 24 hours): 73±17%
- CFZ accumulation relative to uninhibited cells (RAW264.7 cells [3]; NPPB=50 μM, CFZ=8 μM, 24 hours): 72±10%
- CFZ accumulation relative to uninhibited cells (RAW264.7 cells [3]; NPPB=100 μM, CFZ=4 μM, 24 hours): 46±5%
- CFZ accumulation relative to uninhibited cells (RAW264.7 cells [3]; NPPB=100 μM, CFZ=6 μM, 24 hours): 41±12%
- CFZ accumulation relative to uninhibited cells (RAW264.7 cells [3]; NPPB=100 μM, CFZ=8 μM, 24 hours): 41±7%
- CFZ accumulation relative to uninhibited cells (RAW264.7 cells [3]; NPPB=200 μM, CFZ=4 μM, 24 hours): 30±7%
- CFZ accumulation relative to uninhibited cells (RAW264.7 cells [3]; NPPB=200 μM, CFZ=6 μM, 24 hours): 32±12%
- CFZ accumulation relative to uninhibited cells (RAW264.7 cells [3]; NPPB=200 μM, CFZ=8 μM, 24 hours): 37±7%
- rate of drug accumulation (RAW264.7 cells [3]; mouse, 8 µM): ~0.01 picomol/cell/day
- change in CFZ accumulation in inhibited relative to uninhibited cells (RAW264.7 cells [3]; pre-incubated with various concentrations of NPPB, CFZ for 4 hours at varying concentrations): no significant change
- reduction in the total amount of drug found in the liver [4]: 75±7%
- reduction in the total amount of drug found in the spleen [4]: 88±7%
- difference in total amount of drug found in the kidney ([4]; p=0.77): no difference
